Key:
[1] = In vitro inhibition of calcium phosphate crystallization in human plasma (spectrophotometric assay); assay type: biochemical; conditions: 0-100 μM, 1.5 mM phosphate, 12.5 mM calcium, pH 7.4, absorbance 550 nm, slope 6-24 min, read-out: Relative Potency
Outline: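 Human plasma spiked with compound (0-100 μM), centrifuged, then brought to final 1.5 mM phosphate and 12.5 mM calcium, pH 7.4. Absorbance at 550 nm read every 3 min for 30 min at rt; inhibition from slopes (6-24 min, absorbance vs log time) relative to blank plasma.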

tissue calcification = experiment: In vivo tissue calcification (calcium content by ICP-OES) in vitamin D3-induced limb ischemia rat model; conditions: SD rats, vitamin D3 150,000 IU/kg s.c. D1-D3, 30 mg/kg s.c. daily D1-D5, sacrifice D5; for Inhibition of calcification (%) Femoral: femoral arteries; for Inhibition of calcification (%) Kidney: right kidney
Description: (§1) The effects of compounds 1, 6, 9, 14, 18, 31, and 39 over blood perfusion and tissue calcification after the inception of limb ischemia were tested using a rat model for a duration of 5 days. Limb ischemia was induced to all groups from D1 to D3 excepting the sham group, to which no ischemia was induced. The animals were administered placebo and active agent formulations from D1 to D5. Observations were taken at several points during the treatment from D0 to D5. All animals were weighed every day before treatment. Seventy-two male Sprague Dawley (SD) rats (Envigo Corp., Huntingdon, GB) weighing approximately 150-200 g were used. The rats were fed with a […]® Rod14-H diet ([…] GmbH, Soest, DE). The rats were divided in 9 groups, 8 animals per group, as follows: • Group 1-Control (Sham) • Group 2-Physiological saline solution • Group 3-Compound 1 • Group 4-Compound 6 • Group 5-Compound 9 • Group 6-Compound 14 • Group 7-Compound 18 • Group 8-Compound 31 • Group 9-Compound 39 Limb ischemia was induced in the rats of groups 2-9 by subcutaneous administration of 150,000 IU/kg vitamin D3 (cholecalciferol, Duphafral D3 1000; Zoetis Inc., Parsippany, NJ, US) in physiological saline solution (2 mL/kg) every day during D1 to D3. The rats of group 1 were not administered vitamin D3. The rats in groups 1 and 2 were administered 2 mL/kg of physiological saline solution daily from D1 to D5 via subcutaneous route. The animals in groups 3-9 were administered subcutaneously 30 mg/kg of compounds 1, 6, 9, 14, 18, 31, and 39, respectively, in physiological saline solution (2 mL/kg), every day from D1 to D5. All rats of groups 1-9 were sacrificed on D5 30 minutes after dosing for determining their Ca baseline values. The animals were anesthetized by isoflurane inhalation. The whole aorta, carotids, femoral arteries, heart, and right kidney of the subjects were collected for calcium content measurement. The tissues were lyophilized for 48-72 h and weighed. The lyophilized tissues were then digested using a 1:1 HNO3:HClO4 mixture in a dry bath incubator for 2-4 h at 180° C. The digested tissues were subsequently diluted using ultra-pure MilliQ® water (MilliporeSigma (Merck KGaA), Burlington, MA, US) to a final volume of 5 mL (i.e., for femoral arteries and carotids) of 10 mL (i.e., for heart, kidneys, and aorta). Calcium content was quantified via inductively coupled plasma optical emission spectrometry (ICP-OES) using an Optima 7300 DV ICP-OES System spectrometer (PerkinElmer, Inc., Waltham, MA, US) according to the manufacturer's instructions. Average blood perfusion recovery compared to vehicle and sham were also calculated. Recovery for sham was 100%. Blood perfusion recovery calculated was using the following equation: 100-((BP sham-BP new drug)/(BP sham-BP vehicle)*100).

blood perfusion = experiment: In vivo blood perfusion (laser doppler perfusion imaging) in vitamin D3-induced limb ischemia rat model; conditions: average blood perfusion recovery vs vehicle and sham (sham 100%), SD rats, 30 mg/kg s.c. daily D1-D5
Description: as §1, with “to D5. Limb functional and ischemia status were evaluated by using a laser doppler perfusion imaging apparatus PeriCam PSI Normal Resolution (Perimed AB, Järfälla, SE) in all groups at D0 and D5. The perfusion difference and perfusion ratio were calculated by comparing the baseline and either D0 or D5 readings for each group. In addition, the blood perfusion ratio of each treatment group (i.e., groups 2 to 9) to sham group was also calculated. All rats” for “to D5. All rats”

SMILES	EC50 [1] [µM]	Inhibition of calcification (%) Aorta (tissue calcification)	Inhibition of calcification (%) Carotid (tissue calcification)	Inhibition of calcification (%) Femoral (tissue calcification)	Inhibition of calcification (%) Heart (tissue calcification)	Inhibition of calcification (%) Kidney (tissue calcification)	BP recovery (%) (blood perfusion)
CCCCCO[C@@H]1[C@@H](OP(=O)([O-])[O-])[C@H](OCCCCC)[C@@H](OP(=O)([O-])[O-])[C@@H](OP(=O)([O-])[O-])[C@H]1OP(=O)([O-])[O-].[Na+].[Na+].[Na+].[Na+].[Na+].[Na+].[Na+].[Na+] [Compound 1, 4,6-O-dipentyl-myo-inositol-1,2,3,5-tetrakis(phosphate) octasodium salt]	≤ 5	Over (Average inhibition percentage over or under 25% inhibition of calcification.)	Under (Average inhibition percentage over or under 25% inhibition of calcification.)	Over (Average inhibition percentage over or under 25% inhibition of calcification.)	Over (Average inhibition percentage over or under 25% inhibition of calcification.)	Over (Average inhibition percentage over or under 25% inhibition of calcification.)	Under (Average blood perfusion recovery over or under 25%.)
O=C([O-])CCn1cc(CO[C@@H]2[C@@H](OP(=O)([O-])[O-])[C@H](OCc3cn(CCC(=O)[O-])nn3)[C@@H](OP(=O)([O-])[O-])[C@@H](OP(=O)([O-])[O-])[C@H]2OP(=O)([O-])[O-])nn1.[Na+].[Na+].[Na+].[Na+].[Na+].[Na+].[Na+].[Na+].[Na+].[Na+] [Compound 31, 4,6-O-bis((1-(2-carboxyethyl)-1H-1,2,3-triazol-4-yl)methyl)-myo-inositol-1,2,3,5-tetrakis(phosphate) decasodium salt]	≤ 5	Over (Average inhibition percentage over or under 25% inhibition of calcification.)	Under (Average inhibition percentage over or under 25% inhibition of calcification.)	Over (Average inhibition percentage over or under 25% inhibition of calcification.)	Over (Average inhibition percentage over or under 25% inhibition of calcification.)	Over (Average inhibition percentage over or under 25% inhibition of calcification.)	Over (Average blood perfusion recovery over or under 25%.)
